In one series the test system is Septoria nodorum. Kind of series: leaf disk assay, Septoria nodorum (wheat glume blotch), preventive. In kind it is in vivo. The conditions noted are these: for Efficacy (%): wheat leaf segments, four days after inoculation.

Compound `CC#CC(C)(C)NC(=O)C(Oc1cc(Br)c2ncc(I)cc2c1)SC` (stereo not drawn) [2(5), 2-(8-bromo-3-iodo-quinolinyl-6-oxy)-2-methylthio-N-(2-methylpent-3-yn-2-yl) acetamide] registered a melting point of 161 to 162 °C. Also, the “Efficacy (%)” value with Septoria nodorum (Concentration 60 ppm) amounted to 80%. Besides, the “Efficacy (%)” value with Septoria nodorum (Concentration 200 ppm) came to 100%. In addition, the “fungicidal activity against Septoria nodorum compared with the compound from the state of the art” value in the series with Septoria nodorum (both application rates (200 and 60 ppm)) is on record as “substantially better fungicidal activity”.

Turning to `CC#CC(C)(C)NC(=O)C(Oc1cc(Br)c2ncc(Br)cc2c1)SC` (stereo not drawn) [2 (Table 23), reference compound], the “Efficacy (%)” value with Septoria nodorum (Concentration 60 ppm) and in the series on Septoria nodorum (Concentration 200 ppm) was 0% throughout.

Broadly, the melting point is the temperature, or range, at which the solid turns liquid.

For the origin of these results see patent US8440595B2, “Fungicides” (priority 2007, dated 2013).
